In US20080280862A1, “Methods, compositions, and kits for the treatment of pain” (priority 2007, published 2008):

How the values were obtained:
[1] = test system: carrageenan-induced pain model in rats; assay: Carrageenan pain model, mechanical allodynia by Von Frey filaments; assay type: in vivo, Sprague-Dawley rats; conditions: for Mean AUC ± SEM: AUC from 20 minutes through 120 minutes following carrageenan injection
Method in brief: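 Male Sprague-Dawley rats dosed IP once daily on days −2 and −1 and 30 min before intraplantar 0.1 ml 2% carrageenan. Von Frey withdrawal force (g) measured at 0–120 min post-injection; values are mean change from pre-dose baseline across five timepoints. Synergy by median-effect model and combination index.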

[2] = test system: formalin-induced pain model in rats; assay: Formalin pain model, nociceptive behaviors; assay type: in vivo, Sprague-Dawley rats; conditions: Experiment Two
Method in brief: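 Male Sprague-Dawley rats dosed intraperitoneally once daily on days −2 and −1 and 30 min before 2% formalin injection into the right hindpaw plantar surface. Lifting, licking and biting were timed by a blinded observer over 1 h, phase I and phase II, reported per 5-min period.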

C[C@]12C=CC(=O)C=C1CC[C@@H]1[C@@H]2[C@@H](O)C[C@@]2(C)[C@H]1CC[C@]2(O)C(=O)CO [Prednisolone]
Mean AUC ± SEM ([1]; 0.3 mg/Kg): 2302 ± 634.46
Mean AUC ± SEM ([1]; 1 mg/Kg): 1583 ± 574.15
Mean change from baseline ± SEM ([1]; Experiment One, 3 mg/kg, 20 minutes): 1.10 ± 9.30 g
Mean change from baseline ± SEM ([1]; Experiment One, 3 mg/kg, 40 minutes): -52.01 ± 12.52 g
Mean change from baseline ± SEM ([1]; Experiment One, 3 mg/kg, 60 minutes): -101.90 ± 15.02 g
Mean change from baseline ± SEM ([1]; Experiment One, 3 mg/kg, 80 minutes): -159.70 ± 16.77 g
Mean change from baseline ± SEM ([1]; Experiment One, 3 mg/kg, 120 minutes): -212.90 ± 20.82 g
Mean change from baseline ± SEM ([1]; Experiment One, 10 mg/kg, 20 minutes): 5.60 ± 6.14 g
Mean change from baseline ± SEM ([1]; Experiment One, 10 mg/kg, 40 minutes): -44.30 ± 11.47 g
Mean change from baseline ± SEM ([1]; Experiment One, 10 mg/kg, 60 minutes): -97.50 ± 14.33 g
Mean change from baseline ± SEM ([1]; Experiment One, 10 mg/kg, 80 minutes): -147.30 ± 16.72 g
Mean change from baseline ± SEM ([1]; Experiment One, 10 mg/kg, 120 minutes): -193.70 ± 18.07 g
Mean change from baseline ± SEM ([1]; Experiment One, 20 mg/kg, 20 minutes): -29.40 ± 5.10 g
Mean change from baseline ± SEM ([1]; Experiment One, 20 mg/kg, 40 minutes): -82.60 ± 5.59 g
Mean change from baseline ± SEM ([1]; Experiment One, 20 mg/kg, 60 minutes): -135.80 ± 7.21 g
Mean change from baseline ± SEM ([1]; Experiment One, 20 mg/kg, 80 minutes): -189.00 ± 8.41 g
Mean change from baseline ± SEM ([1]; Experiment One, 20 mg/kg, 120 minutes): -246.20 ± 12.02 g
Mean change from baseline ± SEM ([1]; Experiment One, 35 mg/kg, 20 minutes): -13.60 ± 7.52 g
Mean change from baseline ± SEM ([1]; Experiment One, 35 mg/kg, 40 minutes): -73.60 ± 7.52 g
Mean change from baseline ± SEM ([1]; Experiment One, 35 mg/kg, 60 minutes): -130.20 ± 7.26 g
Mean change from baseline ± SEM ([1]; Experiment One, 35 mg/kg, 80 minutes): -176.60 ± 10.69 g
Mean change from baseline ± SEM ([1]; Experiment One, 35 mg/kg, 120 minutes): -216.20 ± 11.39 g
Mean change from baseline ± SEM ([1]; Experiment Two, first set of rows, 0.3 mg/kg, 20 minutes): 4.79 ± 7.92 g
Mean change from baseline ± SEM ([1]; Experiment Two, first set of rows, 0.3 mg/kg, 40 minutes): 16.77 ± 5.63 g
Mean change from baseline ± SEM ([1]; Experiment Two, first set of rows, 0.3 mg/kg, 60 minutes): 19.7 ± 5.68 g
Mean change from baseline ± SEM ([1]; Experiment Two, first set of rows, 0.3 mg/kg, 80 minutes): 24.31 ± 6.40 g
Mean change from baseline ± SEM ([1]; Experiment Two, first set of rows, 0.3 mg/kg, 120 minutes): 25.57 ± 6.79 g
Mean change from baseline ± SEM ([1]; Experiment Two, first set of rows, 1 mg/kg, 20 minutes): 27.60 ± 5.74 g
Mean change from baseline ± SEM ([1]; Experiment Two, first set of rows, 1 mg/kg, 40 minutes): 28.64 ± 5.42 g
Mean change from baseline ± SEM ([1]; Experiment Two, first set of rows, 1 mg/kg, 60 minutes): 25.54 ± 6.04 g
Mean change from baseline ± SEM ([1]; Experiment Two, first set of rows, 1 mg/kg, 80 minutes): 23.77 ± 6.08 g
Mean change from baseline ± SEM ([1]; Experiment Two, first set of rows, 1 mg/kg, 120 minutes): 35.14 ± 5.26 g
Mean change from baseline ± SEM ([1]; Experiment Two, second set of rows, 0.3 mg/kg, 20 minutes): 0.00 ± 7.42 g
Mean change from baseline ± SEM ([1]; Experiment Two, second set of rows, 0.3 mg/kg, 40 minutes): -4.86 ± 4.86 g
Mean change from baseline ± SEM ([1]; Experiment Two, second set of rows, 0.3 mg/kg, 60 minutes): 0.00 ± 0.00 g
Mean change from baseline ± SEM ([1]; Experiment Two, second set of rows, 0.3 mg/kg, 80 minutes): 4.86 ± 4.86 g
Mean change from baseline ± SEM ([1]; Experiment Two, second set of rows, 0.3 mg/kg, 120 minutes): 31.43 ± 5.54 g
Mean change from baseline ± SEM ([1]; Experiment Two, second set of rows, 1 mg/kg, 20 minutes): 9.71 ± 6.27 g
Mean change from baseline ± SEM ([1]; Experiment Two, second set of rows, 1 mg/kg, 40 minutes): 0.00 ± 10.49 g
Mean change from baseline ± SEM ([1]; Experiment Two, second set of rows, 1 mg/kg, 60 minutes): 16.14 ± 7.73 g
Mean change from baseline ± SEM ([1]; Experiment Two, second set of rows, 1 mg/kg, 80 minutes): 24.14 ± 7.56 g
Mean change from baseline ± SEM ([1]; Experiment Two, second set of rows, 1 mg/kg, 120 minutes): 12.86 ± 13.38 g
decrease of median-effect dose (Dm) after co-administration compared to the monotherapy ([1]; median-effect model, prednisolone/nortriptyline 1:3 fixed ratios): 10 fold
Mean number of behaviors per 5 minute block ([2]; 1 mg/kg, 5 minutes): 224.0 ± 34.1
Mean number of behaviors per 5 minute block ([2]; 1 mg/kg, 10 minutes): 27.0 ± 11.7
Mean number of behaviors per 5 minute block ([2]; 1 mg/kg, 15 minutes): 18.0 ± 15.2
Mean number of behaviors per 5 minute block ([2]; 1 mg/kg, 20 minutes): 115.0 ± 41.9
Mean number of behaviors per 5 minute block ([2]; 1 mg/kg, 25 minutes): 172.0 ± 51.1
Mean number of behaviors per 5 minute block ([2]; 1 mg/kg, 30 minutes): 178.0 ± 52.0
Mean number of behaviors per 5 minute block ([2]; 1 mg/kg, 35 minutes): 174.0 ± 48.7
Mean number of behaviors per 5 minute block ([2]; 1 mg/kg, 40 minutes): 207.0 ± 43.9
Mean number of behaviors per 5 minute block ([2]; 1 mg/kg, 45 minutes): 197.0 ± 45.3
Mean number of behaviors per 5 minute block ([2]; 1 mg/kg, 50 minutes): 192.0 ± 48.4
Mean number of behaviors per 5 minute block ([2]; 1 mg/kg, 55 minutes): 113.0 ± 43.2
Mean number of behaviors per 5 minute block ([2]; 1 mg/kg, 60 minutes): 92.0 ± 29.7
Mean number of behaviors per 5 minute block ([2]; 3 mg/kg, 5 minutes): 218.0 ± 14.7
Mean number of behaviors per 5 minute block ([2]; 3 mg/kg, 10 minutes): 15.0 ± 6.7
Mean number of behaviors per 5 minute block ([2]; 3 mg/kg, 15 minutes): 6.0 ± 3.4
Mean number of behaviors per 5 minute block ([2]; 3 mg/kg, 20 minutes): 68.0 ± 19.8
Mean number of behaviors per 5 minute block ([2]; 3 mg/kg, 25 minutes): 208.0 ± 35.5
Mean number of behaviors per 5 minute block ([2]; 3 mg/kg, 30 minutes): 214.0 ± 39.8
Mean number of behaviors per 5 minute block ([2]; 3 mg/kg, 35 minutes): 254.0 ± 29.2
Mean number of behaviors per 5 minute block ([2]; 3 mg/kg, 40 minutes): 269.0 ± 14.2
Mean number of behaviors per 5 minute block ([2]; 3 mg/kg, 45 minutes): 258.0 ± 19.9
Mean number of behaviors per 5 minute block ([2]; 3 mg/kg, 50 minutes): 221.0 ± 36.1
Mean number of behaviors per 5 minute block ([2]; 3 mg/kg, 55 minutes): 198.0 ± 38.1
Mean number of behaviors per 5 minute block ([2]; 3 mg/kg, 60 minutes): 133.0 ± 46.8
